This is an account of results in paper PMC10744333, “New Perspective for Using Antimicrobial and Cell-Penetrating Peptides to Increase Efficacy of Antineoplastic 5-FU in Cancer Cells” (Journal of Functional Biomaterials, 2023).

Like-named read-outs stand apart in the source and are kept apart here. Where a SMILES comes first, the peptide text is derived from it. Where only a bound is given, the exact number is not on record here.

Experiment [1] concerns UM-UC-5 urothelial bladder cancer cell lines. The experiment is described as follows: tissue or blood. As to conditions: 48 h. Type of experiment: cell-based. As for the experimental part: (§1) A549 adenocarcinomic human alveolar basal epithelial cells, UM-UC-5 urothelial bladder cancer cell lines, and MRC-5 human normal lung fibroblast cells (all from ATCC, American Type Culture Collection, Manassas, VA, USA) were cultured in Dulbecco’s Modified Eagle Medium (DMEM) medium (Gibco®, Grand Island, NY, USA), supplemented with 10% fetal bovine serum (FBS, Gibco®, Grand Island, NY, USA) and 1% (v/v) penicillin/streptomycin (Sigma-Aldrich®, Steinheim, Germany), maintained at 37 °C and 95% humidified air in a 5% CO2 environment. Cells were cultured in monolayers in T25 cm^2 flasks (ThermoScientific®, Waltham, MA, USA) and cell media were replaced every 2–3 days. At 80% confluency, cells were subcultured. For the subculture process, 0.25% trypsin-ethylenediaminetetraacetic acid (EDTA, Sigma-Aldrich®, Steinheim, Germany), was added.
(§2) The potential of the antineoplastic drug 5-FU, five cationic antimicrobial peptides (CAMPs), and two cell-penetrating peptides (CPPs) was analyzed in UM-UC-5 and A549 cell lines. Cells were treated with drugs in concentrations ranging from 0.1 to 100 μM (for 5-FU) and 0.1 to 50 μM (for CAMPs and CPPs) for 48 h, and cell survival was evaluated using the MTT assay. […] IC50 values > 100 μM were not considered.
(§3) The cell viability was measured using the MTT (Thiazolyl blue tetrazolium bromide; cat. no. M5655; Sigma-Aldrich; Merck KGaA, Darmstadt, Germany) assay in 96-well plates. For the protocol, 5 × 10^3 cells in 200 µL of medium were grown per well for 24 h at 37 °C. Then, cells were treated with CAMPs and CPPs in the following concentrations: 0.1, 1.0, 5.0, 10, 25, and 50 µM. […] The controls were treated with 0.1% H2O and 0.1% DMSO (vehicles). After incubation for 48 h at 37 °C, cell media were aspirated and 100 µL of MTT solution (0.5 mg/mL in PBS) was added to each well. After incubation for 3 h at 37 °C protected from light, MTT solution was removed from each well and 100 µL of DMSO was added to each well to solubilize the formazan crystals. Absorbance was measured on a Tecan Infinite M200 plate reader (Tecan Group Ltd., Männedorf, Switzerland) at 570 nm. The cell viability was calculated relative to the absorbance of carrier controls. Average values were obtained by performing three independent cell viability assays (n = 3).

The subject of experiment [2] is A549 adenocarcinomic human alveolar basal epithelial cells. In kind it is cell-based. As to conditions: 48 h. The procedure:
as §1, §2, §3

The mark [3] stands for this setting: UM-UC-5 cells, MTT, n = 3, read-out: IC50.
[4] abbreviates: A549 cells, MTT, n = 3, read-out: IC50.

Regarding `CC[C@H](C)[C@H](NC(=O)[C@@H](NC(=O)[C@@H](NC(=O)[C@H](CCCNC(=N)N)NC(=O)[C@H](CCCNC(=N)N)NC(=O)[C@H](CCC(N)=O)NC(=O)[C@H](CCCNC(=N)N)NC(=O)/C=C/c1ccccc1)C(C)C)C(C)C)C(=O)N[C@@H](Cc1c[nH]c2ccccc12)C(=O)N[C@@H](Cc1c[nH]c2ccccc12)C(N)=O` [CPP2] (HELM PEPTIDE1{[O=C(/C=C/c1ccccc1)[*:2]].R.Q.R.R.V.V.I.W.W.[am]}$$$$V2.0), the IC50 in experiment [1] (setting [3]) is 5.47 µM; in experiment [2] (setting [4]) it was above 100 µM.
Consider `O=c1[nH]cc(F)c(=O)[nH]1` [Peptide 5-FU, 5-fluorouracil, reference compound], for which the IC50 in experiment [1] (setting [3]) was 4.21 µM.
As to Ac-CLLIILRRRIRKQAHAHSK-NH2 [CPP4], the IC50 in experiment [1] and in experiment [2] was above 100 µM in each case.
For the molecule H-RIRRWKFRW-NH2 [CAMP5], the IC50 was above 100 µM in experiment [1] (setting [3]) and 19.7 µM in experiment [2] (setting [4]).
Consider H-RLWWWWRRR-NH2 [CAMP3], for which the IC50 in experiment [1] was above 100 µM; in experiment [2] it was 17.6 µM.
As to H-RQRRVVIWW-NH2 [CAMP7], the IC50 in experiment [1] (setting [3]) and in experiment [2] (setting [4]) was above 100 µM each time.
H-WKWLKKWIK-NH2 [CAMP1]: the figures for the IC50 in experiment [1] (setting [3]) and in experiment [2] (setting [4]) were above 100 µM and 12.4 µM, respectively.
In the same order, the values of H-WRKFWKYLK-NH2 [CAMP2] are 21.6 µM and 5.77 µM.

By IC50 is commonly meant the concentration that gives 50% inhibition.
